Consider 4 compounds from patent US12595269B2, “Morpholine-like monoamine releasers” (Solvonis Therapeutics Ireland Holdings Limited, priority 2022, dated 2026).

Where two headings read alike, the source gives them in different places.

One series deals with T1, DAT (dopamine release) (Rattus norvegicus, UniProt P23977).
T1 construct: added to the tube containing the crude striatal synaptosomes preparation; from tissue; host or cells: rat striatum, crude synaptosomes
As to the kind of experiment: Dopamine release filtration assay in rat striatal synaptosomes. Format: cell-based. Particulars: % of release by 50 μM MDMA, read-out: DAT release pEC50 (converted). As to the method:
Methods and Procedure—Release: The potency of the disclosed compounds for stimulating dopamine (DA) release was measured by an endpoint release filtration assay in a 96-well format using rat synaptosomes, essentially as described by Sandtner et al., Mol. Pharmacol., 2016; 89(1):165-75, and Baumann et al., Neuropsychopharmacol., 2013; 38:552-562, with some variations.
One male rat was sacrificed and striatum/cortex regions were dissected over ice. The striatum portions were weighed and put in a glass tube for homogenization, containing ice-cold 0.32 M sucrose (dilution 1:24 w/v), while the frontal cortex tissue was diluted in ice-cold 0.32 M sucrose, 1:20 w/v. Tissues were homogenized and centrifuged for 10 mins at 1000×g. The two supernatants from striatum and cortex (crude synaptosomes) were retained on ice until use.
Test compounds were then serially diluted 1:4 in neat DMSO as concentration-response curves (CRC) of 11 points. […]
^3H-Dopamine was added to the tube containing the crude striatal synaptosomes preparation, diluted 1:20 (v/v) in complete Krebs-phosphate buffer, and was incubated at RT and gently mixed for 60 minutes. […] The retained radioactivity was counted in a scintillation counter after the addition of 50 μL/well Microscint-20.
The raw data (cpm) from residual radioactivity onto the filter were elaborated for the determination of pEC50/EC50 values. Specifically, the compound effect was expressed as the percent of maximal release obtained with 50 μM MDMA (100% release) in comparison to vehicle (0.5% DMSO, 0% release). […] In each plate, for both 0% and 100% of release, the signal window is monitored performing Z′ calculations using raw data of four replicates.

The nature of series [1]: Lipophilicity by Chromatographic Hydrophobicity Index (CHI LogD). Type of series: physicochemical. As to the method:
Methods and Procedure: The methods employed herein comply with previously described procedures to assure data integrity and adherence to GLP regulations. Briefly, a CHI value was determined by comparing the retention time of a test compound to a linear curve based on a set of calibration compounds with known CHI values. The resultant CHI value can be further converted to a CHI Log D value using an established linear regression equation.
Reference compounds with known CHI values, including theophylline, phenyltetrazole, benzymidazole, colchicine, phenyltheophylline, acetophenone, indole, propiophenone, butyrophenone, valerophenone, were used to create a calibration line. Test compounds (10 mM) were prepared in DMSO on the same day of the experiment, when feasible. For sample preparation, 10 μL of test solution was diluted with 190 μL of a solution of Ammonium Acetate solution (50 mM) and Acetonitrile (1:1) pH7.4, which was then mixed via shaking at room temperature for 10 minutes. Test solutions were compared with the reference compounds via HPLC-UV, as described in Example 19. The gradient was calibrated by determining the retention time of each reference compound on a reverse phase LC system at a pH of 7.4.
The relationship of CHI with retention time is “CHI=Atr+B,” wherein A and B are the constants of a linear plot of CHI against their gradient retention times, and tr is retention time.
The test compounds were analyzed on the same system as the test mix. The equation generated from the calibration line for the reference compounds was then used to determine the unknown CHI value for the test compound. From the CHI value, the Log D was extrapolated according to the following equation, as described in Valko et al, 2001: Log D=0.0525×CHI pH7.4-1.467. Log D represents the log of the partitioning of a chemical compound between the lipid and aqueous phases.

Where [2] appears, read: pH 7.4, as stated in text under Table 10, read-out: calculated Log D values.
The mark [3] stands for this setting: pH 7.4, pH 7.4, HPLC-UV, read-out: Chi LogD.

T1 sequence (P23977 whole entry): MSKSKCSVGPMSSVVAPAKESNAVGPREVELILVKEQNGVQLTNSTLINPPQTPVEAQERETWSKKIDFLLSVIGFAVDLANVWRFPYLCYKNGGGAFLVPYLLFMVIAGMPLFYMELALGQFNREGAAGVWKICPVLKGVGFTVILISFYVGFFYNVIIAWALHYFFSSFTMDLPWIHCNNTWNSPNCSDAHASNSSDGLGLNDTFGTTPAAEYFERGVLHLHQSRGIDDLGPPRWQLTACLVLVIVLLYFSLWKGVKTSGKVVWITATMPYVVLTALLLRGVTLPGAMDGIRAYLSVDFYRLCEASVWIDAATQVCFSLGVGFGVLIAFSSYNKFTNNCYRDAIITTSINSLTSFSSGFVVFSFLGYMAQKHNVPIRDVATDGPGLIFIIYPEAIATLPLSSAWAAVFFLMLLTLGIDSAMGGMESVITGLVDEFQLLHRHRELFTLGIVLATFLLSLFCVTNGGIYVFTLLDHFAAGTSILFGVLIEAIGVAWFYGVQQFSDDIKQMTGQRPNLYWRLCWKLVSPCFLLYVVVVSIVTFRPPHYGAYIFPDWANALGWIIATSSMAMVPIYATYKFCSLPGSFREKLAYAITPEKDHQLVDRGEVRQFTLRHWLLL

Regarding `Clc1ccc([C@@]23CN[C@@H](CO2)C3)cc1Cl` (single isomer, unassigned) [518A], on DAT (dopamine release), the EC50 is 33.1 nM. Further, the values for the chromatographic logD in series [1] (setting [2]) and in series [1] (setting [3]) were 1.15 and 0.75, respectively.
Taken in the same sequence, the figures for `Clc1ccc(C23CNC(CO2)C3)cc1Cl` (centres unmarked) [522A, 1-(3,4-dichlorophenyl)-2-oxa-5-azabicyclo[2.2.1]heptane] were 61.7 nM, 1.15 and 0.75.
Taken in the same sequence, the figures for `Clc1ccc([C@]23CN[C@H](CO2)C3)cc1Cl` (single isomer, unassigned) [516A] were 1100 nM, 1.15 and 0.75.
Turning to `CNC(C)Cc1ccc2c(c1)OCO2` (centres unmarked) [MDMA, reference compound], the chromatographic logD in series [1] (setting [2]) and in series [1] (setting [3]) was 0.29 each time.
